Assay results as given in the supplement of paper PMC5908809.

Key:
Assay in all cases: percent inhibition of viability; higher = more inhibition
[1] = test system: normal NK cells expanded with K562-aAPC; conditions: 72 h, IL-2 2.5 ng/mL
Protocol: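 Drug sensitivity and resistance testing on K562-aAPC-expanded normal NK cells: 5 concentrations (10-fold steps over a 10,000-fold range), 72 h at 37 °C, viability by CellTiter-Glo normalised to DMSO and benzethonium chloride controls; DSS from the fitted curve.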

[2] = test system: DERL-7 (IL-2 2.5 ng/mL); conditions: 72 h
[3] = test system: IMC-1 (IL-2 20 ng/mL); conditions: 72 h
[4] = test system: KAI3 (IL-2 2.5 ng/mL); conditions: 72 h
[5] = test system: KHYG-1 (IL-2 2.5 ng/mL); conditions: 72 h
[6] = test system: NK-92 (IL-2 2.5 ng/mL); conditions: 72 h
[7] = test system: NK-YS (IL-2 2.5 ng/mL); conditions: 72 h
[8] = test system: NKL (IL-2 2.5 ng/mL); conditions: 72 h
[9] = test system: SNK-6 (IL-2 2.5 ng/mL); conditions: 72 h

CC(C)N(CCCNC(=O)Nc1ccc(C(C)(C)C)cc1)C[C@H]1O[C@@H](n2cc(Br)c3c(N)ncnc32)[C@H](O)[C@@H]1O [SGC0946] (max concentration tested 10000 nM)
percent inhibition of viability [%]
Conditions | [1] | [2] | [3] | [4] | [5] | [6] | [7] | [8] | [9]
1 nM | -2.37 | 4.94 | -8.07 | 2.28 | -5.1 | -2.74 | -4.5 | -15 | -6.32
10 nM | -3.94 | 2.4 | -3.94 | -1.4 | -1.55 | -1.7 | -0.39 | -7.75 | -2.25
100 nM | 1.95 | 5.77 | -2.69 | -1.58 | -1.47 | 19.9 | 3.77 | 4.16 | –
1000 nM | 8.9 | 1.04 | 2.99 | 5.53 | 1.03 | 10.5 | -0.01 | 0.58 | –
10000 nM | 10.9 | 37 | 17.2 | 72.2 | 17 | 40.7 | 21.5 | 33.7 | –
